Experimental data taken from article PMC8770593 (Nature Communications, 2022).

Legend:
[1] = target: T1, α1BAR-α2C(L^45.52) chimera (V197^45.52→L) (Homo sapiens, UniProt P35368, V197L); assay: HTRF ligand-binding assay on whole transfected HEK293T/17 cells (QAPB saturation; competition with QAPB tracer)
T1 sequence (P35368 35-520 V197L): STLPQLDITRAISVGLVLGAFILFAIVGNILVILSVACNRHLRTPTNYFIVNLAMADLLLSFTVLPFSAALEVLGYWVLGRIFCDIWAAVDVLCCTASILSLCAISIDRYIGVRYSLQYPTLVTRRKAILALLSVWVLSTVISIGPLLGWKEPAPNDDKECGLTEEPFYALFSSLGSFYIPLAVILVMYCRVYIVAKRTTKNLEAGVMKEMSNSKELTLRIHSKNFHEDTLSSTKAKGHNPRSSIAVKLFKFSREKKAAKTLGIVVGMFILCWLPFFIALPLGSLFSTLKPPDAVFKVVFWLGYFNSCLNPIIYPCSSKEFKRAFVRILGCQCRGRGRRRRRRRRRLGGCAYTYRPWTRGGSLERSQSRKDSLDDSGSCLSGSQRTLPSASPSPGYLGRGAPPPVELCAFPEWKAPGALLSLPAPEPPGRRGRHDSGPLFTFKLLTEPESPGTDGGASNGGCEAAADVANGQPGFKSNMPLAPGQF

[2] = target: α1BAR-α2C(YLLY;ECL2) chimera (Homo sapiens, UniProt P35368, A122L/DEL188-193/E186Y/E194Q/E199D/F202W/G179P/I178F/INS181VSLYRQP/K185A/L182D/L314Y/P201T/T198N/V197L/W121Y/W184A); assay: as above
[3] = target: T2, α1BARXTAL (Homo sapiens, UniProt P35368, D191Y/DEL249-283/E194V/F334L/G183V/I116T/P349L/S150Y/S168C/S95C/T295M/V124M/V333L); assay: CPM-based thermostability assay of ligand-bound receptor; details: cyclazosin-bound α1BARXTAL
T2 construct: deletion of N-terminal residues M1–N34 and intracellular loop three (ICL3) residues K249–L283, and fusion of DARPin D12[43],[68],[69] to residue C350^7.55; MBP (N, cleaved yes); His6-tag (N, cleaved yes); DARPin D12, modified (ΔS1,D2); L3K, G4A, K5R, A13K; thioredoxin A (TrxA) (C, cleaved yes); His10-tag (C, cleaved yes); made in house; host or cells: E. coli BL21 (fhuA2 deletion)
T2 sequence (P35368 with tags, fused parts or gaps with the stated changes): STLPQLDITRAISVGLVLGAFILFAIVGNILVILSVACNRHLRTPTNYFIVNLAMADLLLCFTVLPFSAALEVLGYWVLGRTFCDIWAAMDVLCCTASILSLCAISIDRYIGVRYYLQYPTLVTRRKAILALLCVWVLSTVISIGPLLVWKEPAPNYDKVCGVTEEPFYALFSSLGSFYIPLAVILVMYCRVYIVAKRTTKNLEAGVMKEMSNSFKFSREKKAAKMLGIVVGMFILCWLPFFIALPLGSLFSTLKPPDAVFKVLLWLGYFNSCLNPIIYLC

Sequence of α1BAR-α2C(YLLY;ECL2) chimera (P35368 with tags, fused parts or gaps with the stated changes): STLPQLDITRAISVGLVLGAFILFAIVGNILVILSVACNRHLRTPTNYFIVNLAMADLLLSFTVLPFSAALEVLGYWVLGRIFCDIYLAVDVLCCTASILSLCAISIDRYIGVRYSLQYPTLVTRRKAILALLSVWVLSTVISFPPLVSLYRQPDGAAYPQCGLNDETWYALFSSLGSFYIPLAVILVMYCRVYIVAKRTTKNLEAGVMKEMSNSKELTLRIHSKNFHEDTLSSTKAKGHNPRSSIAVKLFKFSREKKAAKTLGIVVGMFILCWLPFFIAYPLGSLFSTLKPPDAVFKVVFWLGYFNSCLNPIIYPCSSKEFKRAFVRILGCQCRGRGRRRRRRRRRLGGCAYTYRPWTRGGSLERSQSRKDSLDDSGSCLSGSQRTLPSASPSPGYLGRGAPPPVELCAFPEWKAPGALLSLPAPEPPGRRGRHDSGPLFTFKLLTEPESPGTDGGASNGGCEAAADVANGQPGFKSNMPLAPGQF

## COc1cc2nc(N3CCN(C(=O)c4ccco4)[C@H]4CCCC[C@H]43)nc(N)c2cc1OC (relative stereo) [cyclazosin, [4-(4-amino-6,7-dimethoxyquinazolin-2-yl)-cis-octahydroquinoxalin-1-yl] furan-2-ylmethanone]
[1]; V197^45.52→L vs wild-type α1BAR
  effect of the substitution on affinity: negligible
[1]; pKi (competition binding), competition with 2 nM QAPB tracer, whole cells, mean
  Ki: 1.1 nM
[2]
  Ki: 2.69 nM
[3]
  apparent Tm of the ligand-bound receptor: ≈ 71 °C
